Key:
[1] = Long term storage in solution; type: physicochemical
From the text: Both IAZA and IAZG are synthesised, in high yield, from commercial precursors (FIG. 1) and undergo high-yield isotope exchange reactions with radioiodine to produce the required radiolabelled test compounds. […] Therefore, the compounds were stored as a dry residue in multidose vials under refrigeration and were reconstituted with the appropriate solvent just prior to use. IAZP is similarly synthesised. It will be known to those skilled in the art that other radio halogens may be similarly employed in the exchange reaction.

EMT-6 cells = experiment: Hypoxic cell radiosensitizing ability (post-irradiation survival); type: cell-based, mouse
Procedure: Cell cultures were examined under oxic (air) and hypoxic incubation, with various concentrations of test drug, and at several doses of radiation.

[2] = test system: BALB/C mice bearing subcutaneous EMT-6 tumors; experiment: Tissue distribution of radioactivity after intravenous injection; type: in vivo; settings: for Tissue to Blood Ratio, Bone / Tissue to Blood Ratio, Carcass / Tissue to Blood Ratio, Heart / Tissue to Blood Ratio, Intestine / Tissue to Blood Ratio, Kidney / Tissue to Blood Ratio, Liver / Tissue to Blood Ratio, Lung / Tissue to Blood Ratio, Muscle / Tissue to Blood Ratio, Spleen / Tissue to Blood Ratio, Stomach / Tissue to Blood Ratio, Tumor: i.v.
From the text: Tables 1 and 2 show the percent of injected IAZG and IAZA respectively per gram of wet tissue for selected tissues excised from BALB/C mice bearing EMT-6 tumors. This tumor model is known to have a high hypoxic fraction (0.33) (16). […] Hepatobiliary excretion may play a role in blood clearance as evidenced by elevated liver radioactivity and the appearance of activity in the intestine. Some oxidative or reductive metabolites of the 2-nitroimidazoles may also become bound to liver tissue, as was postulated in an in vivo study with ^14 C-MISO (6). This supposition is supported by the persistence of liver radioactivity at longer time periods. […] At 8 and 24 hours thyroid levels of IAZG are 7.2 and 30.9% of the total body activity and for IAZA they are 7.9 and 33.8% of total body activity. EXAMPLE 11 TISSUE DISTRIBUTION AND EXCRETION Tumor propagation of EMT-6 tumors in BALB/C mice was accomplished by subcutaneous injection of a cell suspension (10^5 cells in 0.1 mL) as described previously (10). Tumors reached about 10 mm in diameter (≈0.5 g) at 12 to 14 days, at which time each animal was given a bolus intravenous injection of ^125 I-labelled test drug via the tail vein (40 to 60 kBq in 0.1 mL). At set time periods the animals were asphyxiated with CO2 and exsanguinated via cardiac puncture. Tissues were dissected, weighed wet into vials and counted for ^125 I-activity. Whole-body activity was determined by summation of total activity in tissues and in residual carcass, and blood activity was determined from the blood aliquot, assuming blood to be 6.5% of the total body weight. EXAMPLE 12 Male BALB/c mice (20-25 g) were inoculated subcutaneously in the left flank with a suspension of murine EMT-6 cells (10^5 cells in 0.1 mL) (14). After 12 to 14 days, when the tumors reached the desired size (8-10 mm diameter), each mouse received a single intravenous (iv) injection of ^125 I-IAZA (59 kBq in 0.1 mL). […] Heart, lung, liver, spleen, muscle, bone, thyroid, kidney, stomach, small intestine, tail, tumor and skin were removed upon necropsy, weighed and analyzed for ^125 I using a Beckman Model 8000 gamma scintillation counter. The remaining carcass mass was also weighed and radioassayed.

O=[N+]([O-])c1nccn1[C@@H]1O[C@H](CI)[C@@H](O)[C@@H]1O [IAZA, 1-(5-iodo-5-deoxy-β-D-arabino-furanosyl)-2-nitroimidazole]
stability on long term storage in solution [1]: some decomposition of the pure compounds | sensitizer enhancement ratio (SER) (EMT-6 cells; 50 μM, 90% cell kill, hypoxic): ~1.4 | sensitisation to lethal effects of ionising radiation (EMT-6 cells; in words): sensitise these cells to the lethal effects of ionising radiation | Tissue to Blood Ratio, Bone ([2]; 0.25 h): 0.50 | Tissue to Blood Ratio, Carcass ([2]; 0.25 h): 1.02 | Tissue to Blood Ratio, Heart ([2]; 0.25 h): 1.78 | Tissue to Blood Ratio, Intestine ([2]; 0.25 h): 2.06 | Tissue to Blood Ratio, Kidney ([2]; 0.25 h): 2.49 | Tissue to Blood Ratio, Liver ([2]; 0.25 h): 3.29 | Tissue to Blood Ratio, Lung ([2]; 0.25 h): 1.75 | Tissue to Blood Ratio, Muscle ([2]; 0.25 h): 1.17 | Tissue to Blood Ratio, Spleen ([2]; 0.25 h): 1.36 | Tissue to Blood Ratio, Stomach ([2]; 0.25 h): 1.66 | Tissue to Blood Ratio, Tumor ([2]; 0.25 h): 0.97 | Tissue to Blood Ratio, Bone ([2]; 0.50 h): 0.63 | Tissue to Blood Ratio, Carcass ([2]; 0.50 h): 1.18 | Tissue to Blood Ratio, Heart ([2]; 0.50 h): 1.64 | Tissue to Blood Ratio, Intestine ([2]; 0.50 h): 2.04 | Tissue to Blood Ratio, Kidney ([2]; 0.50 h): 2.61 | Tissue to Blood Ratio, Liver ([2]; 0.50 h): 3.29 | Tissue to Blood Ratio, Lung ([2]; 0.50 h): 1.74 | Tissue to Blood Ratio, Muscle ([2]; 0.50 h): 1.28 | Tissue to Blood Ratio, Spleen ([2]; 0.50 h): 1.38 | Tissue to Blood Ratio, Stomach ([2]; 0.50 h): 2.19 | Tissue to Blood Ratio, Tumor ([2]; 0.50 h): 1.60 | Tissue to Blood Ratio, Bone ([2]; 1 h): 0.63 | Tissue to Blood Ratio, Carcass ([2]; 1 h): 1.21 | Tissue to Blood Ratio, Heart ([2]; 1 h): 1.51 | Tissue to Blood Ratio, Intestine ([2]; 1 h): 2.52 | Tissue to Blood Ratio, Kidney ([2]; 1 h): 2.38 | Tissue to Blood Ratio, Liver ([2]; 1 h): 3.06 | Tissue to Blood Ratio, Lung ([2]; 1 h): 1.63 | Tissue to Blood Ratio, Muscle ([2]; 1 h): 1.19 | Tissue to Blood Ratio, Spleen ([2]; 1 h): 1.35 | Tissue to Blood Ratio, Stomach ([2]; 1 h): 2.15 | Tissue to Blood Ratio, Tumor ([2]; 1 h): 1.46 | Tissue to Blood Ratio, Bone ([2]; 2 h): 0.64 | Tissue to Blood Ratio, Carcass ([2]; 2 h): 1.60 | Tissue to Blood Ratio, Heart ([2]; 2 h): 1.13 | Tissue to Blood Ratio, Intestine ([2]; 2 h): 1.90 | Tissue to Blood Ratio, Kidney ([2]; 2 h): 1.98 | Tissue to Blood Ratio, Liver ([2]; 2 h): 2.39 | Tissue to Blood Ratio, Lung ([2]; 2 h): 1.26 | Tissue to Blood Ratio, Muscle ([2]; 2 h): 0.75 | Tissue to Blood Ratio, Spleen ([2]; 2 h): 1.02 | Tissue to Blood Ratio, Stomach ([2]; 2 h): 3.62 | Tissue to Blood Ratio, Tumor ([2]; 2 h): 2.80 | Tissue to Blood Ratio, Bone ([2]; 4 h): 0.60 | Tissue to Blood Ratio, Carcass ([2]; 4 h): 1.98 | Tissue to Blood Ratio, Heart ([2]; 4 h): 0.71 | Tissue to Blood Ratio, Intestine ([2]; 4 h): 1.80 | Tissue to Blood Ratio, Kidney ([2]; 4 h): 1.46 | Tissue to Blood Ratio, Liver ([2]; 4 h): 2.11 | Tissue to Blood Ratio, Lung ([2]; 4 h): 1.00 | Tissue to Blood Ratio, Muscle ([2]; 4 h): 0.53 | Tissue to Blood Ratio, Spleen ([2]; 4 h): 0.78 | Tissue to Blood Ratio, Stomach ([2]; 4 h): 4.02 | Tissue to Blood Ratio, Tumor ([2]; 4 h): 4.62 | Tissue to Blood Ratio, Bone ([2]; 8 h): 0.57 | Tissue to Blood Ratio, Carcass ([2]; 8 h): 2.00 | Tissue to Blood Ratio, Heart ([2]; 8 h): 1.57 | Tissue to Blood Ratio, Intestine ([2]; 8 h): 5.50 | Tissue to Blood Ratio, Kidney ([2]; 8 h): 2.43 | Tissue to Blood Ratio, Liver ([2]; 8 h): 3.36 | Tissue to Blood Ratio, Lung ([2]; 8 h): 2.36 | Tissue to Blood Ratio, Muscle ([2]; 8 h): 2.57 | Tissue to Blood Ratio, Spleen ([2]; 8 h): 1.29 | Tissue to Blood Ratio, Stomach ([2]; 8 h): 6.21 | Tissue to Blood Ratio, Tumor ([2]; 8 h): 8.71 | thyroid levels ([2]; 8 hours): 7.9 % of the total body activity | Tissue to Blood Ratio, Bone ([2]; 24 h): 0.59 | Tissue to Blood Ratio, Carcass ([2]; 24 h): 1.03 | Tissue to Blood Ratio, Heart ([2]; 24 h): 1.14 | Tissue to Blood Ratio, Intestine ([2]; 24 h): 1.11 | Tissue to Blood Ratio, Kidney ([2]; 24 h): 1.41 | Tissue to Blood Ratio, Liver ([2]; 24 h): 2.64 | Tissue to Blood Ratio, Lung ([2]; 24 h): 1.00 | Tissue to Blood Ratio, Muscle ([2]; 24 h): 0.54 | Tissue to Blood Ratio, Spleen ([2]; 24 h): 0.97 | Tissue to Blood Ratio, Stomach ([2]; 24 h): 1.81 | Tissue to Blood Ratio, Tumor ([2]; 24 h): 5.56 | thyroid levels ([2]; 24 hours): 33.8 % of the total body activity | injected dose in tumor at maximum tumor to blood ratio ([2]; at 8 h): 1.22 % of the injected dose | maximum tumor to blood ratio ([2]; at 8 h): 8.7 | tumor to blood ratio (text, FIG. 7) ([2]; at 24 h): > 5.5 | uptake in EMT-6 tumor tissue ([2]; in words): taken up preferentially in EMT-6 tumor tissue | deiodination (increase in thyroid radioactivity) ([2]; longer periods (>4 h)): evidence of deiodination at longer periods (>4 h)

— patent US5401490A, “Markers of tissue hypoxia” (priority 1989, dated 1995)
